The record followed here is patent US9434693B2, “Substituted pyrazoles as N-type calcium channel blockers” (Janssen Pharmaceutica NV, priority 2012, dated 2016).

For orientation: inhibition means how much of the control response was suppressed. For orientation: IC50 means the concentration that gives 50% inhibition.

The assay addresses N-type calcium channel (α1B (Cav2.2), β3 and α2δ subunits) in stable HEK cell line (Homo sapiens (Human), UniProt Q00975). The assay can be described thus: Functional assay (FDSS calcium mobilization): antagonism of N-type calcium channel. Format: cell-based. The note with it: for inhibition at 0.33 µM: HEK293; for inhibition at 0.33 µM / % Inhibition (%) at 0.33 μM: FDSS, 0.33 μM compound; for IC50: KCl (50 mM) depolarization, six-point concentration-response. The procedure: A stable cell line (HEK parent) co-expressing the α1B (Cav2.2), β3 and α2δ subunits of the N-type calcium channel subunits was used. These cells were routinely grown as monolayers in low glucose-containing Dulbecco's Modified Eagle Medium supplemented with 10% FBS, 2 mM L-glutamine, 100 I.U./mL penicillin, 100 μg/mL streptomycin, 400 μg/mL G418 and 200 μg/mL Zeocin (split ratio=1:5). Cells were maintained in 5% CO2 at 37° C. Compounds of Formula (I) were prepared as 10 mM stocks in DMSO from neat compound, if available. Otherwise, the 5 or 10 mM DMSO stock solutions provided in-house were used.
Calcium mobilization responses to KCl depolarization were evaluated by measuring the intensity of calcium-mediated fluorescent signal in the presence of BD Calcium Assay Dye (BD Biosciences, Franklin Lakes, N.J., U.S.A.), utilizing a Functional Drug Screening System (FDSS) by Hamamatsu Corporation (Bridgewater, N.J. U.S.A.).
Twenty-four hr prior to assay, cells were seeded in clear-base poly-D-lysine-coated 384-well plates (BD Biosciences) at a density of 5,000 cells per well in culture medium and grown overnight in 5% CO2 at 37° C. On the day of assay, growth media were removed, and cells were loaded with BD calcium assay dye (BD Biosciences) for 35 min at 37° C. under 5% CO2 and then for 25 min at room temp. Utilizing the FDSS, cells were exposed to representative compounds of Formula (I) at varying concentrations, and intracellular calcium was measured for 5 min prior to the addition of 50 mM KCl for an additional 3 min of measurement.
IC50 values for representative compounds of Formula (I) were determined from six-point concentration-response experiments and represent the concentration of said compound required to inhibit 50% of the maximal response. Maximal fluorescence intensity (FI) achieved upon addition of 50 mM KCl was exported from the FDSS software and further analyzed using GraphPad Prism 3.02 (Graph Pad Software Inc., San Diego, Calif., U.S.A.). Data were normalized to the maximum average counts from quadruplicate wells for each condition in the presence of 50 mM KCl and to the minimum average counts in the presence of buffer. Theoretical curves were generated using nonlinear regression curve-fitting analysis of either sigmoidal concentration-response or sigmoidal concentration-response (variable slope), and the IC50 values with the best-fit curve determined by GraphPad Prism were reported.
In general terms: A change in cytosolic calcium serves as a functional read-out for many receptors and channels.

Each structure is given as a SMILES string.

Chain of N-type calcium channel (α1B (Cav2.2), β3 and α2δ subunits) in stable HEK cell line (Q00975 whole entry): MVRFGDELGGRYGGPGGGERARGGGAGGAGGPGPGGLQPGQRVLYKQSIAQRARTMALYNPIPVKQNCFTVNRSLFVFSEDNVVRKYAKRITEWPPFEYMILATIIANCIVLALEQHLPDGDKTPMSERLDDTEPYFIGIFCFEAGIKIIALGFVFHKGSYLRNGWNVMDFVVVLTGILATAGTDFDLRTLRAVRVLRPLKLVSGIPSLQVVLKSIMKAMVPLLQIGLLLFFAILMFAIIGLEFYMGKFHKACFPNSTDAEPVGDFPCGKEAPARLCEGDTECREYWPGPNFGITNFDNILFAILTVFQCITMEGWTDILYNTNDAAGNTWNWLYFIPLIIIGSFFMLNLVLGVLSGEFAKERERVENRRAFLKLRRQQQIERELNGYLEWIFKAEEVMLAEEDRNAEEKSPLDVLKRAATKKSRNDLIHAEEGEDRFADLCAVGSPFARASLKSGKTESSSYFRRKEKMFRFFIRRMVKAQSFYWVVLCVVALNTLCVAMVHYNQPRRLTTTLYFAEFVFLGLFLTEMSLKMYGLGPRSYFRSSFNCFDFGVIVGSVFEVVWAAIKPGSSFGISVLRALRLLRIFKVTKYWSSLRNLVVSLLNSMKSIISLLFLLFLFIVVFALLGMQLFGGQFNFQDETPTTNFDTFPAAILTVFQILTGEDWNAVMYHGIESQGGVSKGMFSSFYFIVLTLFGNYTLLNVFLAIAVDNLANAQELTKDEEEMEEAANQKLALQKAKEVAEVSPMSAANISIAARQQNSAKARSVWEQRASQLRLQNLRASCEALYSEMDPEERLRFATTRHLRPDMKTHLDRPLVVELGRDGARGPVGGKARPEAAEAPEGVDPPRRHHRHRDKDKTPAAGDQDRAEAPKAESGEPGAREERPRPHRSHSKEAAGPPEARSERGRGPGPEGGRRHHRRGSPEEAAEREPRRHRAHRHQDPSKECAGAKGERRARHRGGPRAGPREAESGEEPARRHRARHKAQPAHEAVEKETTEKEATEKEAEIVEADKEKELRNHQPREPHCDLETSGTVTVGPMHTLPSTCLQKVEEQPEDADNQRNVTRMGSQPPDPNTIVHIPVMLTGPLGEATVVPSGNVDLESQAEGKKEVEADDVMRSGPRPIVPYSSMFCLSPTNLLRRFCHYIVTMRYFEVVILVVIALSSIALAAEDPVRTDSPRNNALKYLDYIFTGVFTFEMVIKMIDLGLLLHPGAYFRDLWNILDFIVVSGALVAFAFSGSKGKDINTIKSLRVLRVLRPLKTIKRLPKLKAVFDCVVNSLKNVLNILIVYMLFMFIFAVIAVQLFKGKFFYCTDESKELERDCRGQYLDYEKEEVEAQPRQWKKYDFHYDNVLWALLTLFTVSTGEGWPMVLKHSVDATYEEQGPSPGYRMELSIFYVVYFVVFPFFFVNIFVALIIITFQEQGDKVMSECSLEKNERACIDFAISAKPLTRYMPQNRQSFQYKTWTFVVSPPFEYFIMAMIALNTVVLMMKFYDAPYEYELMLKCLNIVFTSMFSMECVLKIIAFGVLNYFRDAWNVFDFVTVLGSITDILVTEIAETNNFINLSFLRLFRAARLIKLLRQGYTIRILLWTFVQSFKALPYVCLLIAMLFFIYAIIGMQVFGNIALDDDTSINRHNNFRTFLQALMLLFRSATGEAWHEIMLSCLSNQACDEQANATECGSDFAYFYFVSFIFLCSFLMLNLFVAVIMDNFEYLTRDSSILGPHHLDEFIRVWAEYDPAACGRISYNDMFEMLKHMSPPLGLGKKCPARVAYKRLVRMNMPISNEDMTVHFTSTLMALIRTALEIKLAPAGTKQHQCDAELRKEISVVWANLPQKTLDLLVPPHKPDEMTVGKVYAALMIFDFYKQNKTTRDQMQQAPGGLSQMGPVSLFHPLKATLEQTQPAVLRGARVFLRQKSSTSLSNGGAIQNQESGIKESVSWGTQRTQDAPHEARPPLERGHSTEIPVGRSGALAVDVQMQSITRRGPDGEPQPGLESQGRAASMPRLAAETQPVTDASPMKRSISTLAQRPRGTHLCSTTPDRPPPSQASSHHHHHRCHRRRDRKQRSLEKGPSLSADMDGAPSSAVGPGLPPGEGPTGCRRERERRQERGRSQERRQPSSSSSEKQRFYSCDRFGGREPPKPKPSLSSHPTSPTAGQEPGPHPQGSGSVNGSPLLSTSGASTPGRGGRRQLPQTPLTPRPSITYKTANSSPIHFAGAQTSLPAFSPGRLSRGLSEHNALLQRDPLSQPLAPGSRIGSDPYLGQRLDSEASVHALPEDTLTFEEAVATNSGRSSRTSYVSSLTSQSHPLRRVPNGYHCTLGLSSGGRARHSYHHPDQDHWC
Chain of N-type calcium channel (α1B (Cav2.2), β3 and α2δ subunits) in stable HEK cell line (P54284 whole entry partner): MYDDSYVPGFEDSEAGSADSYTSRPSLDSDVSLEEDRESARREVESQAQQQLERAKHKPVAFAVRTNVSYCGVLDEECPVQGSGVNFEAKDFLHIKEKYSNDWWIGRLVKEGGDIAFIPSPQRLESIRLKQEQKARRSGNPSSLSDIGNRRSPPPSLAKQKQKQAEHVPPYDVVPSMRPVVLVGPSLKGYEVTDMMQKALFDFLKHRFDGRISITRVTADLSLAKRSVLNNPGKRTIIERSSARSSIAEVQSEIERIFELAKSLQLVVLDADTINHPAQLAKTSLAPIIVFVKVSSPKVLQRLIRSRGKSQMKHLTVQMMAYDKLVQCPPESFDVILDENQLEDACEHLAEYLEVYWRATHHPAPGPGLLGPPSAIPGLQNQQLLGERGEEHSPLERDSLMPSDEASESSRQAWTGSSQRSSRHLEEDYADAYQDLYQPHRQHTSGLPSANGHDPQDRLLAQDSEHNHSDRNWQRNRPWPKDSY
Chain of N-type calcium channel (α1B (Cav2.2), β3 and α2δ subunits) in stable HEK cell line (P54289 25-1103 partner): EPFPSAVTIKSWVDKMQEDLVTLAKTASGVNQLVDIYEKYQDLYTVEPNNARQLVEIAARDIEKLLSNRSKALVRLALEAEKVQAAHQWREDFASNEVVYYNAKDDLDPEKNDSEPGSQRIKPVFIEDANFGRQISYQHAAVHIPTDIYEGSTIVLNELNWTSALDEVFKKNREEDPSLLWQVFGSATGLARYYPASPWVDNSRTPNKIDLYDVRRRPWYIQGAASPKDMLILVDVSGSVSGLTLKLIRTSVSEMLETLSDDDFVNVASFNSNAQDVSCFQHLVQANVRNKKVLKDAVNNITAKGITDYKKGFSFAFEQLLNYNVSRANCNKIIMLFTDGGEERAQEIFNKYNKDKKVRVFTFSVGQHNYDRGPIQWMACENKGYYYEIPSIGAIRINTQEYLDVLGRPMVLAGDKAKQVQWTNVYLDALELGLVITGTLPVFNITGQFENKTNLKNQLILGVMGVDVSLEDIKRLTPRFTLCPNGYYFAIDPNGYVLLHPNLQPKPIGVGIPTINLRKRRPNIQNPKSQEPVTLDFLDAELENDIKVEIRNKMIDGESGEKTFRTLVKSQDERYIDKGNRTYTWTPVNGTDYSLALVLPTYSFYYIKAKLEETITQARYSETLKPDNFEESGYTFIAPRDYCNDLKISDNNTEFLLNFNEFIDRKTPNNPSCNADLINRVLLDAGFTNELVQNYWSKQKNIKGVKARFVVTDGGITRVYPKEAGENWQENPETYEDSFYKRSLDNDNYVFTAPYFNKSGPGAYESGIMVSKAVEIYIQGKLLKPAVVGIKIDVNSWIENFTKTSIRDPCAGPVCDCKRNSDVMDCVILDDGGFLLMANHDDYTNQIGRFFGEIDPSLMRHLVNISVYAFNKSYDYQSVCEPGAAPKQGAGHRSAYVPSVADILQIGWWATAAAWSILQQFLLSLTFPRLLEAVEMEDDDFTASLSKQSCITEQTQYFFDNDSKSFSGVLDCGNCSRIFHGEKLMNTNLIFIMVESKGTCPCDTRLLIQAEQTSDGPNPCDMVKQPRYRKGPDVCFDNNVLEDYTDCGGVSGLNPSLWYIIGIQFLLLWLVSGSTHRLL

As to `COc1ccccc1-n1nc(OC2CN(C(=O)c3ccccc3)C2)cc1-c1ccc(Cl)cc1` [Compound 27, 5-(4-Chlorophenyl)-1-(2-methoxyphenyl)-3-{[1-(phenylcarbonyl)azetidin-3-yl]oxy}-1H-pyrazole], the inhibition at 0.33 µM is 87% and the concentration for half-maximal inhibition (IC50) was 0.085 µM.
As for `COc1ccccc1-n1nc(OC2CC(C)(C)SC(C)(C)C2)cc1-c1ccc(C#N)cc1` [Compound 44, 4-{1-(2-Methoxyphenyl)-3-[(2,2,6,6-tetramethyltetrahydro-2H-thiopyran-4-yl)oxy]-1H-pyrazol-5-yl}benzonitrile], the inhibition at 0.33 µM was 87% and the IC50 worked out at 0.012 µM.
The matching figures for `COc1ccccc1-n1nc(OC2CC(C)(C)C(O)C(C)(C)C2)cc1-c1ccc(Cl)cc1` (centres unmarked) [Compound 42, 4-{[5-(4-Chlorophenyl)-1-(2-methoxyphenyl)-1H-pyrazol-3-yl]oxy}-2,2,6,6-tetramethylcyclohexanol]: 78% and 0.039 µM.
The corresponding values for `COc1ccccc1-n1nc(OC2CC(C)(C)OC(C)(C)C2)cc1-c1ccc(C#N)cc1` [Compound 43, 4-{1-(2-Methoxyphenyl)-3-[(2,2,6,6-tetramethyltetrahydro-2H-pyran-4-yl)oxy]-1H-pyrazol-5-yl}benzonitrile] are 90% and 0.0072 µM.
Take `COc1ccccc1-n1nc(OC2CCN(C(C)=O)CC2)cc1-c1ccc(Cl)cc1` [Compound 3, 1-Acetyl-4-{[5-(4-chlorophenyl)-1-(2-methoxyphenyl)-1H-pyrazol-3-yl]oxy}piperidine]: the IC50 stood at 0.026 µM.
`COc1ccccc1-n1nc(OC2CC(C)(C)S(=O)(=O)C(C)(C)C2)cc1-c1ccc(C#N)cc1` [Compound 45, 4-{1-(2-Methoxyphenyl)-3-[(2,2,6,6-tetramethyl-1,1-dioxidotetrahydro-2H-thiopyran-4-yl)oxy]-1H-pyrazol-5-yl}benzonitrile]: the inhibition at 0.33 µM was 99% and the 50% inhibitory concentration (IC50) came out at 0.0024 µM.
`COc1ccccc1-n1nc(OC2CCOCC2)cc1-c1ccc(Cl)cc1` [Compound 6, 5-(4-Chlorophenyl)-1-(2-methoxyphenyl)-3-(tetrahydro-2H-pyran-4-yloxy)-1H-pyrazole]: the inhibition at 0.33 µM was 98% and the IC50 stood at 0.015 µM.
On to `COc1ccc(-c2cc(O[C@H]3CC(C)(C)[S@@+]([O-])C(C)(C)C3)nn2-c2ccccc2OC)cc1` [Compound 35, (1s,4s)-4-((1-(2-methoxyphenyl)-5-(4-methoxyphenyl)-1H-pyrazol-3-yl)oxy)-2,2,6,6-tetramethyltetrahydro-2H-thiopyran 1-oxide], for which the “% Inhibition (%) at 0.33 μM” value was found to be 91% and the concentration for half-maximal inhibition (IC50) is 0.0076 µM.
Consider `COc1ccccc1-n1nc(OC2CCSCC2)cc1-c1ccc(Cl)cc1` [Compound 7, 5-(4-Chlorophenyl)-1-(2-methoxyphenyl)-3-(tetrahydro-2H-thiopyran-4-yloxy)-1H-pyrazole], for which the concentration for half-maximal inhibition (IC50) was 0.028 µM.
On to `COc1ccccc1-n1nc(OC2CCN(C(=O)N(C)C)CC2)cc1-c1ccc(Cl)cc1` [Compound 4, 4-{[5-(4-Chlorophenyl)-1-(2-methoxyphenyl)-1H-pyrazol-3-yl]oxy}-N,N-dimethylpiperidine-1-carboxamide], for which the IC50 came to 0.014 µM.
Consider `COc1ccccc1-n1nc(OC2CCN(C(=O)OC(C)(C)C)CC2)cc1-c1ccc(Cl)cc1` [Compound 1, tert-Butyl 4-{[5-(4-chlorophenyl)-1-(2-methoxyphenyl)-1H-pyrazol-3-yl]oxy}piperidine-1-carboxylate], for which the IC50 came to 0.03 µM.
With `COc1ccc(-c2cc(OC3CC(C)(C)S(=O)(=O)C(C)(C)C3)nn2-c2ccccc2OC)cc1` [Compound 33, 1-(2-Methoxyphenyl)-5-(4-methoxyphenyl)-3-[(2,2,6,6-tetramethyl-1,1-dioxidotetrahydro-2H-thiopyran-4-yl)oxy]-1H-pyrazole], the inhibition at 0.33 µM came out at 94% and the half-inhibitory concentration (IC50) worked out at 0.003 µM.
With `COc1ccccc1-n1nc(OCC2C(C)(C)OC2(C)C)cc1-c1ccc(Cl)cc1` [Compound 40], the inhibition at 0.33 µM was determined as 95% and the IC50 came out at 0.0031 µM.
For `COc1ccccc1-n1nc(OC2CN(C(=O)OC(C)(C)C)C2)cc1-c1ccc(Cl)cc1` [Compound 22, tert-Butyl 3-{[5-(4-chlorophenyl)-1-(2-methoxyphenyl)-1H-pyrazol-3-yl]oxy}azetidine-1-carboxylate], the inhibition at 0.33 µM came out at 90% and the IC50 amounted to 0.067 µM.
On to `COc1ccccc1-n1nc(O[C@H]2CC(C)(C)[S@+]([O-])C(C)(C)C2)cc1-c1ccc(C#N)cc1` [Compound 46], for which the “% Inhibition (%) at 0.33 μM” value was 90% and the IC50 was 0.014 µM.
For the compound `COc1ccccc1-n1nc(O[C@H]2CC(C)(C)[S@@+]([O-])C(C)(C)C2)cc1-c1ccc(Cl)cc1.O=C(O)C(F)(F)F` [Compound 39, (1 s,4s)-4-((5-(4-chlorophenyl)-1-(2-methoxyphenyl)-1H-pyrazol-3-yl)oxy)-2,2,6,6-tetramethyltetrahydro-2H-thiopyran 1-oxide trifluoroacetate], the “% Inhibition (%) at 0.33 μM” value is recorded as 99% and the IC50 worked out at 0.0015 µM.
With `COc1ccccc1-n1nc(OC2CCN(CC(F)(F)F)CC2)cc1-c1ccc(Cl)cc1` [Compound 8, 4-{[5-(4-Chlorophenyl)-1-(2-methoxyphenyl)-1H-pyrazol-3-yl]oxy}-1-(2,2,2-trifluoroethyl)piperidine], the IC50 came out at 0.031 µM.
`COc1ccc(-c2cc(O[C@H]3CC(C)(C)[S@+]([O-])C(C)(C)C3)nn2-c2ccccc2OC)cc1` [Compound 34, (1r,4r)-4-((1-(2-methoxyphenyl)-5-(4-methoxyphenyl)-1H-pyrazol-3-yl)oxy)-2,2,6,6-tetramethyltetrahydro-2H-thiopyran 1-oxide]: the “% Inhibition (%) at 0.33 μM” value is recorded as 94% and the half-maximal inhibitory concentration (IC50) turned out to be 0.0045 µM.
Turning to `COc1ccccc1-n1nc(O[C@H]2CC[C@@H](NC(=O)C(F)(F)F)CC2)cc1-c1ccc(Cl)cc1` [Compound 13, N-(cis-4-{[5-(4-Chlorophenyl)-1-(2-methoxyphenyl)-1H-pyrazol-3-yl]oxy}cyclohexyl)-2,2,2-trifluoroacetamide], the IC50 is 0.011 µM.
Regarding `COc1ccccc1-n1nc(OC2CC(C)(C)SC(C)(C)C2)cc1-c1ccc(Cl)cc1` [Compound 36, 5-(4-Chlorophenyl)-1-(2-methoxyphenyl)-3-[(2,2,6,6-tetramethyltetrahydro-2H-thiopyran-4-yl)oxy]-1H-pyrazole], the inhibition at 0.33 µM was 91% and the IC50 came out at 0.0059 µM.
The matching figures for `COc1ccccc1-n1nc(OC2CC(C)(C)S(=O)(=O)C(C)(C)C2)cc1-c1ccc(Cl)cc1` [Compound 37, 5-(4-Chlorophenyl)-1-(2-methoxyphenyl)-3-[(2,2,6,6-tetramethyl-1,1-dioxidotetrahydro-2H-thiopyran-4-yl)oxy]-1H-pyrazole]: 98% and 0.0019 µM.
As to `COc1ccccc1-n1nc(O[C@H]2CC[C@@H](NC(=O)OC(C)(C)C)CC2)cc1-c1ccc(Cl)cc1` [Compound 11, tert-Butyl (cis-4-{[5-(4-chlorophenyl)-1-(2-methoxyphenyl)-1H-pyrazol-3-yl]oxy}cyclohexyl)carbamate], the IC50 is 0.062 µM.
For `COc1ccccc1-n1nc(OC2CCS(=O)(=O)CC2)cc1-c1ccc(Cl)cc1` [Compound 10, 5-(4-Chlorophenyl)-3-[(1,1-dioxidotetrahydro-2H-thiopyran-4-yl)oxy]-1-(2-methoxyphenyl)-1H-pyrazole], the IC50 amounted to 0.03 µM.
